{"source": "patent US8063043B2", "about": "“Salts of N-[6-cis-2,6-dimethylmorpholin-4-yl)pyridine-3-yl]-2-methyl-4′-(trifluoromethoxy)[1,1′-biphenyl]-3-carboxamide” (Novartis AG, priority 2008, dated 2011)", "key": {"[1]": {"experiment": "Rat PK of suspension formulations, free form vs diphosphate salt", "format": "in vivo"}, "[2]": {"experiment": "pH of 1% solution or suspension", "format": "physicochemical", "settings": "In water", "description": "The solutions were stirred continuously as the pH was measured."}, "[3]": {"settings": "pH 6.8"}, "physchem": {"experiment": "physchem", "settings": "25 °C, thermodynamic from solid, Solubility (approx. at 25° C., mg/ml)"}, "[4]": {"experiment": "Crystal modification after 72 hours vibration (polymorphism behavior of slurries)", "format": "physicochemical", "source_text": "The slurries were filtered and the solids collected for XRPD analyses."}, "[5]": {"experiment": "Solid form after stress test (XRPD/DSC)", "format": "physicochemical"}, "[6]": {"experiment": "Stability: appearance color (CL)", "format": "physicochemical"}, "[7]": {"experiment": "Bulk corrosivity with stainless steel coupon", "format": "physicochemical", "settings": "2 day 80% r.h. with stainless steel coupon; change in the surface of the coupon"}, "[8]": {"experiment": "Hygroscopicity, DVS sorption/desorption isotherms", "format": "physicochemical", "settings": "for DVS Desorp. Weight % chg. / DVS Sorp. Weight % chg.: 25° C.", "description": "Sorption/desorption isotherms: Instrument, Surface Measurement System DVS-1 temperature at 25±0.5° C."}, "[9]": {"experiment": "Thermogravimetry (weight loss / loss on drying)", "format": "physicochemical", "settings": "at 150° C."}, "[10]": {"experiment": "Stability measured by degradation products (DP, HPLC area-%)", "format": "physicochemical", "description": "DPs are analyzed by HPLC (method see Table 3). They are calculated as area-% products. Compositions of the mixtures in mass % are as follows.\nFor salts in water, acetonitrile was added to dilute the 0.2% slurry to 0.1% clear solution. For salts in methanol, acetonitrile or acetonitrile/water (50:50, v/v), the corresponding solvent or solvent mixture was added to dilute the 0.2% slurry to 0.1% clear solution. For salts in 0.5% CMC, HPMC cellulose 4000 0.5%, or Tween 80, 0.8%, tetrahydrofuran and water were added to dilute the 2% slurry to 0.1% clear solution and to reach tetrahydrofuran/water 50:50 (v/v). For bulk stability samples (including the samples in excipient mixtures), acetonitrile/water (80:20, v/v) was added to make 0.1% clear solution."}, "[11]": {"settings": "3.0 mg/kg PO dose in suspension, mean"}, "[12]": {"settings": "in vivo, 3.0 mg/kg PO dose in suspension, mean"}, "[13]": {"settings": "in vivo, IV 3 mg/kg, mean, n = 2"}}, "note": "Where two headings read alike, the source gives them in different places.", "data": [{"smiles": "Cc1c(C(=O)Nc2ccc(N3C[C@@H](C)O[C@@H](C)C3)nc2)cccc1-c1ccc(OC(F)(F)F)cc1", "note": "[Free base]", "values": [{"measurement": "AUCinf/dose", "setting": "[1]; [11]", "value": 171, "unit": "nM·h/mg/kg"}, {"measurement": "AUClast/dose", "setting": "[1]; [11]", "value": 170, "unit": "nM·h/mg/kg"}, {"measurement": "Cmax/Dose", "setting": "[1]; [11]", "value": 78.9, "unit": "nM/mg/kg"}, {"measurement": "AUCinf/dose", "setting": "[1]; IV 3 mg/kg, mean, n = 2", "value": 5840, "unit": "nM·h/mg/kg"}, {"measurement": "AUClast/dose", "setting": "[1]; IV 3 mg/kg, mean, n = 2", "value": 5830, "unit": "nM·h/mg/kg"}, {"measurement": "bioavailability", "setting": "[1]; in vivo, 3.0 mg/kg PO dose in suspension", "value": 3, "unit": "%"}, {"measurement": "AUC(0-inf)", "setting": "[1]; [12]", "value": 0.512, "unit": "µM·h"}, {"measurement": "AUC(0-t)", "setting": "[1]; [12]", "value": 0.51, "unit": "µM·h"}, {"measurement": "tmax", "setting": "[1]; [12]", "value": 30, "unit": "min"}, {"measurement": "Cmax", "setting": "[1]; in vivo, 3.0 mg/kg PO dose in suspension, mean, read-out: C0/Cmax", "value": 0.237, "unit": "µM"}, {"measurement": "AUC(0-inf)", "setting": "[1]; [13]", "value": 17.5, "unit": "µM·h"}, {"measurement": "AUC(0-t)", "setting": "[1]; [13]", "value": 17.5, "unit": "µM·h"}, {"measurement": "Cmax", "setting": "[1]; in vivo, IV 3 mg/kg, mean, n = 2, read-out: C0/Cmax", "value": 6.11, "unit": "µM"}]}, {"smiles": "Cc1c(C(=O)Nc2ccc(N3C[C@@H](C)O[C@@H](C)C3)nc2)cccc1-c1ccc(OC(F)(F)F)cc1.Cl", "note": "[Hydrochloride, mono]", "values": [{"measurement": "pH of 1% solution or suspension", "setting": "[2]", "value": 1.69}, {"measurement": "Solubility (approx. at 25° C., mg/ml)", "setting": "[3]; 1 day", "value": "0.000 (Final mg/ml"}, {"measurement": "Final pH of solubility sample", "setting": "[3]", "value": "pH 5.93)"}, {"measurement": "solubility at 1 day", "setting": "physchem; pH 1, simulated gastric fluid", "value": 2, "unit": "µg/mL"}, {"measurement": "solubility at 1 day", "setting": "physchem; water", "value": 5, "unit": "µg/mL"}, {"measurement": "Crystal modification after 72 hours vibration (DSC/XRPD/TG)", "setting": "[4]; 0.1N HCl solution", "value": "XRPD pattern"}, {"measurement": "Crystal modification after 72 hours vibration (DSC/XRPD/TG)", "setting": "[4]; Acetone, N—no, Y—yes", "value": "N, no form change"}, {"measurement": "Crystal modification after 72 hours vibration (DSC/XRPD/TG)", "setting": "[4]; Acetonitrile, N—no, Y—yes", "value": "N, no form change"}, {"measurement": "Crystal modification after 72 hours vibration (DSC/XRPD/TG)", "setting": "[4]; Ethanol, N—no, Y—yes", "value": "N, no form change"}, {"measurement": "Crystal modification after 72 hours vibration (DSC/XRPD/TG)", "setting": "[4]; Ethyl acetate, N—no, Y—yes", "value": "N, no form change"}, {"measurement": "Crystal modification after 72 hours vibration (DSC/XRPD/TG)", "setting": "[4]; Iso Propanol, N—no, Y—yes", "value": "N, no form change"}, {"measurement": "Crystal modification after 72 hours vibration (DSC/XRPD/TG)", "setting": "[4]; Water", "value": "Dissociated to free"}, {"measurement": "Final pH of slurry", "setting": "[4]; Water", "value": "Final pH 1.94"}, {"measurement": "Crystal modification after 72 hours vibration (DSC/XRPD/TG)", "setting": "[4]; pH 3 buffer", "value": "Dissociated to free"}, {"measurement": "Final pH of slurry", "setting": "[4]; pH 3 buffer", "value": "Final pH 2.89"}, {"measurement": "Crystal modification after 72 hours vibration (DSC/XRPD/TG)", "setting": "[4]; pH 6.8 buffer", "value": "No form change"}, {"measurement": "Final pH of slurry", "setting": "[4]; pH 6.8 buffer", "value": "Final pH 5.93"}, {"measurement": "Bulk (XRPD): change", "setting": "[5]; Solid state, 2 week 50° C., tight container", "value": "No"}, {"measurement": "Bulk (XRPD): change", "setting": "[5]; Solid state, 2 week 50° C./75% r.h., footnote: new peak in the XRPD pattern compared with unstressed diphosphate", "value": "No"}, {"measurement": "Bulk (DSC): change", "setting": "[5]; Solid state, 2 week 80° C., tight container", "value": "No"}, {"measurement": "Bulk (XRPD): change", "setting": "[5]; Solid state, 2 week 80° C./75% r.h., footnote: pattern similar to that of phosphate, with one extra peak", "value": "No"}, {"measurement": "Bulk (XRPD): change", "setting": "[5]; Xenon light (approx. 1200 kLuxh)", "value": "No"}, {"measurement": "CL", "setting": "[6]; 0.2% solutions or suspensions, 2 week 50° C., Acetonitrile/Water (50:50), clear solution after stress test (*)", "value": "A *"}, {"measurement": "CL", "setting": "[6]; 0.2% solutions or suspensions, 2 week 50° C., Acetonitrile, clear solution after stress test (*)", "value": "A *"}, {"measurement": "CL", "setting": "[6]; 0.2% solutions or suspensions, 2 week 50° C., Methanol, clear solution after stress test (*)", "value": "A *"}, {"measurement": "CL", "setting": "[6]; 0.2% solutions or suspensions, 2 week 50° C., Water, suspension (↓)", "value": "A ↓"}, {"measurement": "CL", "setting": "[6]; 2% (or 5%) solutions or suspensions, 1 day room temperature, 0.5% CMC, suspension (↓)", "value": "A ↓"}, {"measurement": "CL", "setting": "[6]; 2% (or 5%) solutions or suspensions, 1 day room temperature, HPMC Cellulose 4000 0.5%, suspension (↓)", "value": "A ↓"}, {"measurement": "CL", "setting": "[6]; 2% (or 5%) solutions or suspensions, 1 day room temperature, Tween 80, 0.8%, suspension (↓)", "value": "A ↓"}, {"measurement": "Bulk corrosivity", "setting": "[7]", "value": "No visible change"}, {"measurement": "XRPD after DVS test", "setting": "[8]", "value": "No change"}, {"measurement": "DVS Desorp. Weight % chg.", "setting": "[8]; RH 0.0%", "value": "−0.0114", "unit": "%"}, {"measurement": "DVS Sorp. Weight % chg.", "setting": "[8]; RH 0.0%", "value": "−0.0001", "unit": "%"}, {"measurement": "DVS Desorp. Weight % chg.", "setting": "[8]; RH 25.0%", "value": 0.3799, "unit": "%"}, {"measurement": "DVS Sorp. Weight % chg.", "setting": "[8]; RH 25.0%", "value": 0.3334, "unit": "%"}, {"measurement": "DVS Desorp. Weight % chg.", "setting": "[8]; RH 50.0%", "value": 0.4932, "unit": "%"}, {"measurement": "DVS Sorp. Weight % chg.", "setting": "[8]; RH 50.0%", "value": 0.4660, "unit": "%"}, {"measurement": "DVS Desorp. Weight % chg.", "setting": "[8]; RH 75.0%", "value": 0.6069, "unit": "%"}, {"measurement": "DVS Sorp. Weight % chg.", "setting": "[8]; RH 75.0%", "value": 0.5753, "unit": "%"}, {"measurement": "DVS Desorp. Weight % chg.", "setting": "[8]; RH 85.0%", "value": 0.6817, "unit": "%"}, {"measurement": "DVS Sorp. Weight % chg.", "setting": "[8]; RH 85.0%", "value": 0.6525, "unit": "%"}, {"measurement": "DVS Desorp. Weight % chg.", "setting": "[8]; RH 95.0%", "value": 0.8784, "unit": "%"}, {"measurement": "DVS Sorp. Weight % chg.", "setting": "[8]; RH 95.0%", "value": 0.8784, "unit": "%"}, {"measurement": "Thermogravimetry (weight loss in %)", "setting": "[9]; Heating rate 10° C./min", "value": 0.48, "unit": "% at 150 °C"}, {"measurement": "Loss on drying by TGA (%)", "setting": "[9]; Hygroscopicity, as is", "value": 0.48, "unit": "at 150 °C %"}, {"measurement": "DP [%]", "setting": "[10]; 0.2% solutions or suspensions, 2 week 50° C., Acetonitrile", "value": 0.38, "unit": "%"}, {"measurement": "DP [%]", "setting": "[10]; 0.2% solutions or suspensions, 2 week 50° C., Acetonitrile/Water (50:50)", "value": 1.72, "unit": "%"}, {"measurement": "DP [%]", "setting": "[10]; 0.2% solutions or suspensions, 2 week 50° C., Methanol", "value": 2.06, "unit": "%"}, {"measurement": "DP [%]", "setting": "[10]; 0.2% solutions or suspensions, 2 week 50° C., Water", "value": 0.31, "unit": "%"}, {"measurement": "DP [%]", "setting": "[10]; 2% (or 5%) solutions or suspensions, 1 day room temperature, 0.5% CMC", "value": 0.33, "unit": "%"}, {"measurement": "DP [%]", "setting": "[10]; 2% (or 5%) solutions or suspensions, 1 day room temperature, HPMC Cellulose 4000 0.5%", "value": 0.32, "unit": "%"}, {"measurement": "DP [%]", "setting": "[10]; 2% (or 5%) solutions or suspensions, 1 day room temperature, Tween 80, 0.8%", "value": 0.31, "unit": "%"}, {"measurement": "DP [%]", "setting": "[10]; 2 weeks 50° C., tight container, 1% in mixture 1 (Lactose/maize starch/Aerosil/Magnesiumstearate)", "value": 0.27, "unit": "%"}, {"measurement": "DP [%]", "setting": "[10]; 2 weeks 50° C., tight container, 1% in mixture 2 (Mannitol/Avicel PH 102/Cutina HR)", "value": 0.39, "unit": "%"}, {"measurement": "DP [%]", "setting": "[10]; 2 weeks 50° C./75% r.h., 1% in mixture 1", "value": 2.85, "unit": "%"}, {"measurement": "DP [%]", "setting": "[10]; 2 weeks 50° C./75% r.h., 1% in mixture 2", "value": 0.31, "unit": "%"}, {"measurement": "DP [%]", "setting": "[10]; Solid state, 2 week 50° C., tight container, Bulk (HPLC)", "value": 0.31, "unit": "%"}, {"measurement": "DP [%]", "setting": "[10]; Solid state, 2 week 50° C./75% r.h., Bulk (HPLC)", "value": 0.29, "unit": "%"}, {"measurement": "DP [%]", "setting": "[10]; Solid state, 2 week 80° C., tight container, Bulk (HPLC)", "value": 0.35, "unit": "%"}, {"measurement": "DP [%]", "setting": "[10]; Solid state, 2 week 80° C./75% r.h., Bulk (HPLC)", "value": 0.35, "unit": "%"}, {"measurement": "DP [%]", "setting": "[10]; Unstressed drug substance, bulk", "value": 0.30, "unit": "%"}, {"measurement": "DP [%]", "setting": "[10]; Xenon light (approx. 1200 kLuxh), Bulk (HPLC)", "value": 1.46, "unit": "%"}]}]}
